# Assay results from publication PMC6831611, “Proof-of-Concept Study of Drug Brain Permeability Between in Vivo Human Brain and an in Vitro iPSCs-Human Blood-Brain Barrier Model” (Scientific Reports, 2019).
# Entries after “also recorded” stand apart in the source; their conditions may differ. Like-named read-outs stand apart in the source and are kept apart here.
# Tests used:
# [1] = system: human brain (BBB); details: PET, cited from earlier work; for K1, rate constant for transfer from arterial plasma into brain: human brain; for cerebral uptake / brain distribution in human brain (in words): in vivo, ref S1 Table 1
# [2] = system: iPSC-hBBB monolayer; assay: Apparent permeability (Papp A to B) across the in vitro iPSC-hBBB model; details: iPSC-hBBB model, PappAB
# Method: (§1) On day before the co-culture establishment, rat glial cells (2 × 10^4 cells) isolated as described previously[6] were plated on 12 wells plate (Costar) in glial specific medium. After 24 hours, hiPSC-BECs (6 × 10^4cells) were plated on the upper side of a collagen-coated polyester Transwell membrane (Costar, pore size 0.4 µm; diameter 12 mm; insert growth area 1 cm^2) in 0.5 mL of endothelial medium.
# (§2) Experiments were performed in triplicate for each compound.
# (§3) For LC-MS/MS a sample aliquot (transfer buffer) was diluted by half with acetonitrile and then, 10 μL of this solution was injected into the analytical equipment made up a Liquid Chromatography system coupled to a triple quadrupole mass spectrometer Thermofisher TS Quantum Discovery or Waters Quattro Premier XE equipped with a electrospray ionization source. System control and data processing were carried out using Xcalibur or Masslynx software. The chromatographic separation was performed on a Waters ACQUITY UPLC BEH C18 column (2.1 mm × 50 mm, 1.7 μm) at 60 °C. A gradient of two solvent mixtures was delivered at 0.3 mL/min or 0.5 mL/min according to the analytical system. Solvent A comprised 0.1% formic acid in ammonium acetate (5 mM) and solvent B, 0.1% formic acid in acetonitrile. Molecules were ionized in positive mode. Multiple reaction monitoring mode was used for compounds quantification. For all tested compounds, a linear gradient of mobile phase A and B was optimized. Linearity of the response was verified in the range 0.05 to 5 µM through 3 experiments to be able to measure low passage. Quantification was carried out using standard calibration curve and quality control samples prepared with blank matrix (transfer buffer/acetonitrile; 1/1; v/v) spiked with compounds.
# [3] = system: in vitro primary cell-based rat BBB model; assay: Apparent permeability in the in vitro primary cell-based rat BBB model; details: in vitro cell based rat BBB model vs iPSC-hBBB model
# From the text: We previously described an in vitro primary cell-based rat BBB model with relevant features of the in vivo rat BBB[6]. We therefore analyzed correlatively the permeability of a set of compounds obtained using the in vitro iPSC-hBBB model and the in vitro cell based rat BBB model.
# [4] = system: ABC transporters in the in vitro primary rat cell based BBB model
# [5] = system: ABC transporters (P-gp) in the iPSC-hBBB model
# Method: (§4) A known P-gp substrate was used to assess the asymmetry index of the iPSC- hBBB model.
# (§5) The integrity of iPSC-derived human BBB model was determined by assessment of radiolabelled sucrose permeability as a paracellular marker. The transwells with hiPSC-BECs monolayers were transferred to new 12 well plates. […] After 1 hour of incubation at 37 °C with gentle rotation, 100 µL of transfer buffer from both A and B compartments were collected and counted by scintillation. The Papp value was calculated as followed: Papp=dQ/dTXAXC0 where dQ/dT is the amount of compound transported per time point; A is the membrane surface area of the insert; and Co is the donor concentration at the time point. Data were presented as the average ± SD from three monolayers. […] The propranolol permeability was also tested using the same protocol with an apical tested dose about 1 µCi/mL (48 nM) of [^3H]propranolol in transfer buffer. […] After checking the cell monolayer integrity, the monolayers were transferred to new plates. The buffer (150 mM NaCl, 5.2 mM KCl, 2.2 mM CaCl2, 0.2 mM MgCl2, 6 mM NaHCO3, 2.8 mM glucose and 5 mM Hepes) was added: 1.5 mL to the basal chamber (B) and 0.5 mL to the apical chamber (A). Experiments were performed in triplicate for each compound. […] After 60 min, aliquots were removed from the acceptor and basal chambers for drug-concentration determination by LC-MS/MS.
# [6] = Apparent permeability (Papp A to B) across the in vitro iPSC-hBBB model; details: human
# Method: as §1, §2, §3
# [7] = system: ABC transporters (P-gp); assay: in vitro; details: human, PappBA/PappAB efflux ratio (ER)
# Method: as §4, §5
# [8] = system: ABC transporters; assay: in vitro; details: rat
Structure (SMILES),in vitro permeability across the iPSC-hBBB model (in words) [2],permeability in the rat BBB model compared with the iPSC-hBBB model (in words) [3],"K1, rate constant for transfer from arterial plasma into brain [1]",ABC transporter substrate / interaction (in words) [5],also measured
COC[C@H]1CN(c2ccc(OCC[C@@H](O)C(F)(F)F)cc2)C(=O)O1 [befloxatone],high permeability,,,,"K1, rate constant for transfer from arterial plasma into brain ([1]; ref unpublished data): 0.20 mL.cm-3.min-1; cerebral uptake / brain distribution in human brain (in words) [1]: high cerebral uptake"
Cn1c(=O)c2c(ncn2C)n(C)c1=O [caffeine],,higher,,,
COc1ccc2c(c1)[C@]13CCCC[C@@H]1[C@H](C2)N(C)CC3 [dextromethorphan],,higher,,,
C#Cc1cccc(Nc2ncnc3cc(OCCOC)c(OCCOC)cc23)c1 [erlotinib],high permeability,,0.02 mL.cm-3.min-1,not in the in vitro iPSC-hBBB model,cerebral uptake / brain distribution in human brain (in words) [1]: low cerebral uptake; ABC transporter substrate / interaction (in words) [4]: apparently an ABC transporter substrate
CN(C)C(=O)C(CCN1CCC(O)(c2ccc(Cl)cc2)CC1)(c1ccccc1)c1ccccc1 [loperamide],low apparent permeability,higher,0.002 mL.cm-3.min-1,likely to be also ABC transporter substrates; also recorded: apparently interacted with ABC transporters,
CC(C)NCC(O)COc1cccc2ccccc12 (stereo not shown) [propranolol],,,,,Papp A→B at 1 h [6]: 21.7 ± 3.1 ×10⁻⁶ cm/s
CCN1CCC[C@H]1CNC(=O)c1c(O)c(Cl)cc(Cl)c1OC [raclopride],,,0.09 mL.cm-3.min-1,,
CC[C@]1(O)C[C@@H]2CN(CCc3c([nH]c4ccccc34)[C@@](C(=O)OC)(c3cc4c(cc3OC)N(C)[C@H]3[C@@](O)(C(=O)OC)[C@H](OC(C)=O)[C@]5(CC)C=CCN6CC[C@]43[C@@H]65)C2)C1 [vinblastine],,,,likely to be also ABC transporter substrates,efflux ratio at 60 min [7]: 1.55 ± 0.4; efflux ratio [8]: ≥ 1.25
